Measured values published in patent US7041466B2, “Mouse disease model for evaluation of prophylactic and therapeutic treatments of Chlamydia” (priority 2002, dated 2006).
Entries after “also recorded” stand apart in the source; their conditions may differ. Read-outs that look alike come from different tables or passages of the source.

How the values were obtained:
NO production = settings: mouse, in vivo
C. psittaci strain B577 = settings: mouse, in vivo
C. pneumoniae = settings: mouse, in vivo
[1] = test system: IL-12p70, IFN-γ, NOS2, arginase I, arginase II in lung tissue; settings: mouse, in vivo, 6 mg/kg
splenic CD4+ T cells = settings: mouse, in vivo, 6 mg/kg/day
C. psittaci = settings: mouse, in vivo

Compound: CCC[C@H](N)C(=O)O [L-norvaline]
- day-4 serum nitrite/nitrate (NO production): 123.22 ± 38.8 µM
- serum nitrite/nitrate (NO production), change in words (NO production): significantly increased; also recorded: produced more NO
- chlamydial lung disease (lung weight increase), change in words (C. psittaci strain B577): significantly increased; also recorded: partially reverted to a disease phenotype
- chlamydial lung disease, change in words (C. psittaci strain B577): did not change the disease

Compound: N=C(N)NN [AG, aminoguanidine]
- day-4 serum nitrite/nitrate (NO production; 6 mg/kg/day): 73.2 ± 3.8 µM
- day-4 serum nitrite/nitrate (NO production; 200 mg/kg/day): 39.7 ± 2.9 µM
- serum nitrite/nitrate (NO production), change in words (NO production; ip): significantly reduced; also recorded: reduced NO production of infected C57BL/6 mice in a dose-dependent manner
- chlamydial lung loads after secondary infection (C. pneumoniae): reduced chlamydial lung loads
- gross lung disease after secondary infection (C. pneumoniae): free of gross lung disease
- interstitial pneumonia on day 7 after secondary infection (C. pneumoniae): completely abolished the development of interstitial pneumonia
- NOS2, arginase I and arginase II transcript levels on days 4 and 12 [1]: resembled those of BALB/c mice
- day-4 pulmonary IFN-γ transcripts [1]: significant increase
- day-4 pulmonary concentration of IL-12 p70 [1]: significant increase
- CD4+ splenocytes, day 4 (splenic CD4+ T cells): 28.0±0.55%
- chlamydial lung burden on day 7 (C. psittaci strain B577): higher chlamydial burdens
- day-12 chlamydial lung burden (C. psittaci strain B577): greatly reduced
- day-12 disease (C. psittaci strain B577): did not show significant changes
- day-12 disease (lung weight increase) (C. psittaci strain B577): developed severe day-12 disease
- day-12 disease phenotype (lung weight increase) (C. psittaci strain B577): completely reversed the severe day-12 disease phenotype; also recorded: completely protected; also recorded: protected from disease
- disease outcomes and numbers of chlamydiae in lung tissue (C. psittaci strain B577): did not change disease outcomes
- elimination of chlamydiae from lungs after day 7 (C. psittaci strain B577): significantly more rapidly
- reduction of chlamydial lung burden (C. psittaci): more than 10 fold
- chlamydial burden on day 7 after secondary infection (C. psittaci; 100 mg/kg): substantially, but not significantly, higher
- disease (interstitial pneumonia) on day 7 after secondary infection (C. psittaci; 100 mg/kg): completely abolished disease; also recorded: completely abolished the development of interstitial pneumonia
- disease on day 7 after secondary infection (C. psittaci; 100 mg/kg): marginally increased
